31 compounds from US7642269B2, “Pyrrolo[3,2-B]pyridine derivatives and processes for the preparation thereof” (Yuhan Corporation, priority 2005, dated 2010) can be followed below.

Counter-ions that a name gives are not always drawn.

The target in this assay is T1, H^+/K^+-ATPase (Sus scrofa, UniProt P19156).
T1 construct: used as an enzyme source of the in vitro enzyme reaction assay of proton pump; from tissue; host or cells: hog gastric fundic mucosa (membrane vesicles, lyophilized)
T1 sequence (P19156 2-1034 limits assumed): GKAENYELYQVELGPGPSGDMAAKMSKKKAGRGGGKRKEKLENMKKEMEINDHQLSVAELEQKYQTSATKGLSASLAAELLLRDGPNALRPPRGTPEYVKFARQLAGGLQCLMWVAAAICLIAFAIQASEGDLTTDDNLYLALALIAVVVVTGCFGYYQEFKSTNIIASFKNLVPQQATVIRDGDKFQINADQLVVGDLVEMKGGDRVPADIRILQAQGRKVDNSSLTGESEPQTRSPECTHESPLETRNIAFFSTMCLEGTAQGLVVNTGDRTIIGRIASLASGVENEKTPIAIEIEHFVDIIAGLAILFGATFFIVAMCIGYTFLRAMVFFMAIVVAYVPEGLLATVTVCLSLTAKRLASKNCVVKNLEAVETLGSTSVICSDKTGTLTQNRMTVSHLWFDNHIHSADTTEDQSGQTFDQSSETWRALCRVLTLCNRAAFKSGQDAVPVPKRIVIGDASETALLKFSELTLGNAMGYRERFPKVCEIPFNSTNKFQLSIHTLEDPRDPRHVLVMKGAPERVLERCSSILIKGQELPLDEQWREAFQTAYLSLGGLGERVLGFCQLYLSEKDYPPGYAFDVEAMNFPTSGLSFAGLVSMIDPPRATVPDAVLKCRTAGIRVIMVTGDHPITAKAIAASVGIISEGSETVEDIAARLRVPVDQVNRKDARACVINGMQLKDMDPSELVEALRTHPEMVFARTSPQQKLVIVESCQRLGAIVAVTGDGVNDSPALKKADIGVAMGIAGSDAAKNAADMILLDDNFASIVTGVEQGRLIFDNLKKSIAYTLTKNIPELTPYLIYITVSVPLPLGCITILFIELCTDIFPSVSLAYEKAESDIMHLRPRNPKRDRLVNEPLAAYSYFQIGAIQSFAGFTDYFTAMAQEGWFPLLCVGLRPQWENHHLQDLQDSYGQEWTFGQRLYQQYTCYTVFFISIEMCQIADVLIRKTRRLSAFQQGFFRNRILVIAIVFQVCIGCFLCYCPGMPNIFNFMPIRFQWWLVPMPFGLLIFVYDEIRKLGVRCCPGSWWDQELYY
T1 sequence (P18434 whole entry partner): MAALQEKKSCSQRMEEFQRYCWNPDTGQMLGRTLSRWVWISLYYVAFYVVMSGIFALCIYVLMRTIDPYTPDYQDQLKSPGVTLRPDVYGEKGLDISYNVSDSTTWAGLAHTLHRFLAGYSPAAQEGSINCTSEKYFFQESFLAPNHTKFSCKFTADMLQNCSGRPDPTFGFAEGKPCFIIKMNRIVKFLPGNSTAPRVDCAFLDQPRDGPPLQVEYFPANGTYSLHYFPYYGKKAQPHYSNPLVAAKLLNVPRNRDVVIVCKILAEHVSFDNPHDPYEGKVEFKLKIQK
Description: Inhibitory effects on proton pump (H^+/K^+-ATPase) activity, hog gastric vesicles. In kind it is biochemical. The following applies: K^+ stimulated H^+/K^+-ATPase activity, hog gastric vesicle, Pi measured at 620 nm. Here is the method: Preparation of Gastric Proton Pump Vesicles
The hog fundic regions containing parietal and peptic cells were scraped with slide-glass. The collected cells were suspended in 10 ml of 0.25M sucrose buffer and homogenized using a tight-fitting Teflon-glass homogenizer. The homogenate was centrifuged for 35 min at 8,000 rpm and the pellet was discarded. The supernatant was further centrifuged for 75 min at 25,000 rpm. The resulting pellets were re-suspended in the sucrose buffer (10 ml), and then the suspension was laid onto discontinuous density gradients consisting of 0.25M sucrose buffer and isolation medium containing 9% Ficoll (w/w). After being centrifuged for 3 hours and 15 minutes at 100,000×g, the material at the interface of sucrose buffer and Ficoll solution was collected and then centrifuged for 40 minutes at 100,000×g. The resulting pellets were re-suspended in 1 ml of 5 mM Hepes/Tris buffer (pH 6.1). This material was lyophilized and stored at −70° C. and used as an enzyme source of the in vitro enzyme reaction assay of proton pump.
1-2. Measurement of Inhibitory Effects on Proton Pump (H+/K+-ATPase) activity
The inhibitory effects of the compounds of the present invention against proton pump activity were evaluated in 96-well plate. In this assay, the K^+ specific H^+/K^+-ATPase activity was calculated based on the difference between the activity of H^+/K^+-ATPase activity with K^+ and without K^+ ion. In 96-well plate, 1% dimethylsulfoxide (DMSO) in buffer was added to negative and positive control groups and the diluted compounds of the present invention in buffer were added to test group. All assays were performed in 100 μl reaction volume at room temperature, and the hog gastric vesicle was kept in ice before use. At the beginning of the reaction, 10 μl of reaction buffer containing 1% DMSO was added to the negative and positive control groups and to each concentration of compounds in the test group. Then lyophilized vesicle in 5 mM Pipes/Tris buffer (pH 6.1) was pre-incubated in the presence of various concentrations of test compounds. After a 5 minute incubation, negative and positive buffers were respectively added to the previous reaction mixture. As the substrate, ATP was added to the reaction buffer, and incubated for 30 minutes at 37° C. Enzymatic activity was stopped by the addition of colorimetric reagent (2× malachite green, 1× ammonium molybdate, 1× polyvinyl alcohol, 2× H2O) and the amount of mono phosphate (Pi) in the reaction was measured at 620 nm using the micro plate reader (Genios Pro, TECAN). The difference between the Pi production with K^+ and without K^+ is taken as K^+ stimulated H^+/K^+-ATPase activity.
Take `Cc1c(C)n(Cc2ccc(Cl)cc2)c2c(OCc3ccc(F)cc3)ccnc12` [Example 33, 1-(4-chlorobenzyl)-7-(4-fluorobenzyloxy)-2,3-dimethyl-1H-pyrrolo[3,2-b]pyridine hydrochloride]: half-maximal inhibition (IC50) was put at 650 nM.

The compound `Cc1c(C)n(CC2OCCO2)c2c(OCc3ccc(F)cc3)ccnc12` [Example 39, 1-(1,3-dioxolan-2-ylmethyl)-7-(4-fluorobenzyloxy)-2,3-dimethyl-1H-pyrrolo[3,2-b]pyridine hydrochloride] displayed an IC50 of 220 nM.

For `CC(C)=CCn1c(C)c(C)c2nccc(OCc3ccc(F)cc3)c21` [Example 56, hydrochloride], the IC50 turned out to be 570 nM.

Regarding `Cc1c(C)n(Cc2ccccc2)c2c(OCc3cc(F)cc(F)c3)ccnc12` [Example 195, 1-benzyl-7-(3,5-difluorobenzyloxy)-2,3-dimethyl-1H-pyrrolo[3,2-b]pyridine hydrochloride], the IC50 is 680 nM.

Take `CC(C)=CCn1c(C)c(C)c2nccc(OCc3ccc(Cl)cc3Cl)c21` [Example 135, 7-(2,4-dichlorobenzyloxy)-2,3-dimethyl-1-(3-methylbut-2-enyl)-1H-pyrrolo[3,2-b]pyridine hydrochloride]: the IC50 came to 150 nM.

On to `Cc1c(C)n(Cc2ccc(Cl)cc2)c2c(OCc3cc(F)cc(F)c3)ccnc12` [Example 183, 1-(4-chlorobenzyl)-7-(3,5-difluorobenzyloxy)-2,3-dimethyl-1H-pyrrolo[3,2-b]pyridine hydrochloride], for which it took 1210 nM to reach half-maximal inhibition (IC50).

In turn, `COc1cccc(Cn2c(C)c(C)c3nccc(OCc4ccc(Cl)cc4)c32)c1` [Example 92, 7-(4-chlorobenzyloxy)-1-(3-methoxybenzyl)-2,3-dimethyl-1H-pyrrolo[3,2-b]pyridine hydrochloride] returned an IC50 of 50 nM.

Regarding `COCCn1c(C)c(C)c2nccc(OCc3ccc(F)cc3)c21` [Example 123, 7-(4-fluorobenzyloxy)-1-(2-methoxyethyl)-2,3-dimethyl-1H-pyrrolo[3,2-b]pyridine methanesulfonate], half-maximal inhibition (IC50) required 60 nM.

The compound `CCn1c(C)c(C)c2nccc(N3CCc4ccccc4C3)c21` [Example 13, 1-ethyl-7-(1,2,3,4-tetrahydroisoquinolin-2-yl)-2,3-dimethyl-1H-pyrrolo[3,2-b]pyridine hydrochloride] returned an IC50 of 800 nM.

As to `Cc1cccc(COc2ccnc3c(C)c(C)n(Cc4ccc(Cl)cc4)c23)c1` [Example 147, 1-(4-chlorobenzyl)-2,3-dimethyl-7-(3-methylbenzyloxy)-1H-pyrrolo[3,2-b]pyridine hydrochloride], the IC50 was 3450 nM.

For `COCCn1c(C)c(C)c2nccc(OCc3ccc(F)cc3)c21` [Example 126, 7-(4-fluorobenzyloxy)-1-(2-methoxyethyl)-2,3-dimethyl-1H-pyrrolo[3,2-b]pyridine nitrate], the IC50 came to 50 nM.

Turning to `Cc1cccc(COc2ccnc3c(C)c(C)n(Cc4ccc(F)cc4)c23)c1` [Example 158, 1-(4-fluorobenzyl)-2,3-dimethyl-7-(3-methylbenzyloxy)-1H-pyrrolo[3,2-b]pyridine hydrochloride], the IC50 was found to be 320 nM.

Compound `Cc1[nH]c2c(OCc3ccc(Br)cc3)ccnc2c1C` [Example 218, 7-(4-bromobenzyloxy)-2,3-dimethyl-1H-pyrrolo[3,2-b]pyridine] had an IC50 of 3280 nM.

`Cc1c(C)n(CCC2OCCO2)c2c(N3CCc4ccccc4C3)ccnc12` [Example 14, 1-[2-(1,3-dioxolan-2-yl)ethyl]-7-(1,2,3,4-tetrahydroisoquinolin-2-yl)-2,3-dimethyl-1H-pyrrolo[3,2-b]pyridine hydrochloride] showed an IC50 of 530 nM.

Take `Cc1cccc(Cn2c(C)c(C)c3nccc(OCc4ccc5c(c4)OCO5)c32)c1` [Example 113, 7-(benzo[1,3]dioxol-5-ylmethoxy)-2,3-dimethyl-1-(3-methylbenzyl)-1H-pyrrolo[3,2-b]pyridine hydrochloride]: the IC50 came out at 1420 nM.

Compound `Cc1c(C)n(Cc2ccccc2)c2c(NCc3ccc(F)cc3)ccnc12` [Example 261, N-(1-benzyl-2,3-dimethyl-1H-pyrrolo[3,2-b]pyridin-7-yl)-4-fluorobenzylamine hydrochloride] returned an IC50 of 2060 nM.

`COCCn1c(C)c(C)c2nccc(OCc3ccc(F)cc3)c21` [Example 131, 7-(4-fluorobenzyloxy)-1-(2-methoxyethyl)-2,3-dimethyl-1H-pyrrolo[3,2-b]pyridine camphosulfonate] registered an IC50 of 60 nM.

Regarding `Cc1c(C)n(Cc2ccccc2)c2c(OCc3ccc(Cl)cc3Cl)ccnc12` [Example 136, 1-benzyl-7-(2,4-dichlorobenzyloxy)-2,3-dimethyl-1H-pyrrolo[3,2-b]pyridine hydrochloride], half-maximal inhibition (IC50) was put at 50 nM.

Turning to `Cc1c(C)n(Cc2cccc(F)c2)c2c(OCc3ccc(Br)cc3)ccnc12` [Example 222, 7-(4-bromobenzyloxy)-1-(3-fluorobenzyl)-2,3-dimethyl-1H-pyrrolo[3,2-b]pyridine hydrochloride], the IC50 is 60 nM.

`Cc1c(C)n(CC2CNC(=O)O2)c2c(OCc3ccc(Cl)cc3)ccnc12` (stereo not shown) [Example 81, 5-[7-(4-chlorobenzyloxy)-2,3-dimethyl-pyrrolo[3,2-b]pyridin-1-ylmethyl]-oxazolidin-2-one hydrochloride] gave an IC50 of 1250 nM.

In the case of `Cc1c(C)n(Cc2ccc(F)cc2)c2c(OCc3cc(F)cc(F)c3)ccnc12` [Example 184, 7-(3,5-difluorobenzyloxy)-1-(4-fluorobenzyl)-2,3-dimethyl-1H-pyrrolo[3,2-b]pyridine hydrochloride], the IC50 was 1070 nM.

The compound `Cc1cccc(COc2ccnc3c(C)c(C)n(Cc4cccc(F)c4)c23)c1` [Example 146, 1-(3-fluorobenzyl)-2,3-dimethyl-7-(3-methylbenzyloxy)-1H-pyrrolo[3,2-b]pyridine hydrochloride] returned an IC50 of 3150 nM.

On to `Cc1c(C)n(Cc2ccc(F)cc2)c2c(OCc3ccc(Cl)cc3Cl)ccnc12` [Example 140, 7-(2,4-dichlorobenzyloxy)-1-(4-fluorobenzyl)-2,3-dimethyl-1H-pyrrolo[3,2-b]pyridine hydrochloride], for which the IC50 is 80 nM.

In turn, `COc1ccc(Cn2c(C)c(C)c3nccc(N4CCc5ccccc5C4)c32)cc1` [Example 10, 1-(4-methoxybenzyl)-7-(1,2,3,4-tetrahydroisoquinolin-2-yl)-2,3-dimethyl-1H-pyrrolo[3,2-b]pyridine hydrochloride] registered an IC50 of 690 nM.

As to `Cc1cccc(COc2ccnc3c(C)c(C)n(Cc4ccccc4)c23)c1` [Example 144, 1-benzyl-2,3-dimethyl-7-(3-methylbenzyloxy)-1H-pyrrolo[3,2-b]pyridine hydrochloride], the IC50 stood at 240 nM.

`Cc1c(C)n(Cc2cccc(Cl)c2)c2c(OCc3ccc(Br)cc3)ccnc12` [Example 226, 7-(4-bromobenzyloxy)-1-(3-chlorobenzyl)-2,3-dimethyl-1H-pyrrolo[3,2-b]pyridine hydrochloride] yielded an IC50 of 450 nM.

Take `C=CCn1c(C)c(C)c2nccc(OCc3ccc4c(c3)OCO4)c21` [Example 98, 1-allyl-7-(benzo[1,3]dioxol-5-ylmethoxy)-2,3-dimethyl-1H-pyrrolo[3,2-b]pyridine hydrochloride]: the IC50 was 620 nM.

`COCCn1c(C)c(C)c2nccc(N3CCc4ccccc4C3)c21` [Example 5, 1-(2-methoxyethyl)-7-(1,2,3,4-tetrahydroisoquinolin-2-yl)-2,3-dimethyl-1H-pyrrolo[3,2-b]pyridine hydrochloride] showed an IC50 of 320 nM.

`CCOc1ccccc1COc1ccnc2c(C)c(C)n(Cc3cccc(F)c3)c12` [Example 178, 1-(3-fluorobenzyl)-7-(2-ethoxybenzyloxy)-2,3-dimethyl-1H-pyrrolo[3,2-b]pyridine hydrochloride] registered an IC50 of 840 nM.

For `C=CCn1c(C)c(C)c2nccc(N3CCc4ccccc4C3)c21` [Example 7, 1-allyl-7-(1,2,3,4-tetrahydroisoquinolin-2-yl)-2,3-dimethyl-1H-pyrrolo[3,2-b]pyridine hydrochloride], the IC50 turned out to be 220 nM.

Regarding `Cc1nc2c(C)c(C)n(Cc3ccccc3)c2c(OCc2ccc(F)cc2)c1C` [Example 264, 1-benzyl-7-(4-fluorobenzyloxy)-2,3,5,6-tetramethyl-1H-pyrrolo[3,2-b]pyridine hydrochloride], half-maximal inhibition (IC50) required 3070 nM.

As usually defined, the IC50 is the concentration that inhibits the measured activity by half. Higher therefore signals weaker potency in that assay.
